Data: patent US12410157B2, “Compound useful as toll-like receptor 7 activation inhibitor” (TOYAMA PREFECTURAL UNIVERSITY, priority 2020, dated 2025)
Structures can show the parent of a compound that is named as a salt. Where two headings read alike, the source gives them in different places.

Tests used:
[1] = molecular target: T1, mouse TLR7 (Mus musculus, UniProt P58681); assay: Inhibition of TLR7 activation in mouse TLR7-expressing NF-κB-GFP reporter Ba/F3 cells; assay type: cell-based; conditions: for TLR7 activation inhibitory activity, comparison in words: from IC50 of Table 3 / Table 5
T1 construct: expressed in transfected cells; host or cells: Ba/F3 cells (provided by Prof. Kensuke Miyake, University of Tokyo)
T1 sequence (P58681 27-1050): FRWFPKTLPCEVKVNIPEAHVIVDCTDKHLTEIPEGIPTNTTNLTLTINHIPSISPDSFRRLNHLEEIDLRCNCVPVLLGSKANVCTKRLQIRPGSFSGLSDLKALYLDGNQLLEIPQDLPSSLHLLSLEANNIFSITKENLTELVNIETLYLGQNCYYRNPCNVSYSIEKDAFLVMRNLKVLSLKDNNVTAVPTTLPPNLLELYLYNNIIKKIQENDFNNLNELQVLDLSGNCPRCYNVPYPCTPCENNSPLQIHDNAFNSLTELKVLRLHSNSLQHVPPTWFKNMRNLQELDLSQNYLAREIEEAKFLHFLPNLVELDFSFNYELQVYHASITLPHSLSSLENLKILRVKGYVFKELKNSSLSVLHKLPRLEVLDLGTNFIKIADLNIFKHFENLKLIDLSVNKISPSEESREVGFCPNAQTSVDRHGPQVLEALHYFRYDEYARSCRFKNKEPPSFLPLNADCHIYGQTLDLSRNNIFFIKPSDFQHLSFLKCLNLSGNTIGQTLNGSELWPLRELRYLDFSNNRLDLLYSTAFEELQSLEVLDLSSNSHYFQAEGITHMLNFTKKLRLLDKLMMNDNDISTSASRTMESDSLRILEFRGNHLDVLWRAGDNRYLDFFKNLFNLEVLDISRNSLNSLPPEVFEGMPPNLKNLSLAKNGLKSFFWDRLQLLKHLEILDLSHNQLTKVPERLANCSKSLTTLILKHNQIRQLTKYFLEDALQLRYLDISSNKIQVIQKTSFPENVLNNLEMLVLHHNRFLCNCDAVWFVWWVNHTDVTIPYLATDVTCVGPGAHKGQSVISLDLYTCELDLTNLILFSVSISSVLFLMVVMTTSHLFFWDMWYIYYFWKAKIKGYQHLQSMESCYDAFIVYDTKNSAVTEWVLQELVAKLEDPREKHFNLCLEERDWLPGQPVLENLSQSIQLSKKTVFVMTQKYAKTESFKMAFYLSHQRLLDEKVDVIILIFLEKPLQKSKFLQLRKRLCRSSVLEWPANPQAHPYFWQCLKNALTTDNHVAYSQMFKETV
Description: Mouse TLR7-expressing reporter cells (Ba/F3 cells) were used to evaluate inhibition of TLR7 activation in each derivative and CB-7. These cells were provided by Professor Kensuke Miyake (Department of Infection Genetics, Institute of Medical Science, University of Tokyo). These cells have been transfected with a reporter gene that connects GFP gene downstream of the promoter region of NF-κB. Therefore, the expression of GFP is enhanced by the addition of a ligand for TLR7 expressed by the cells. The fluorescence intensity of GFP was attenuated by the addition of each derivative, and the inhibition of TLR7 activation by each derivative was evaluated as an indicator.
Loxoribine (Alexis Biochemicals) was used as the ligand for mouse TLR7. Gardiquimod (Invivogen) was used as the ligand for human TLR7.
Ba/F3 cells cultured in RPMI 1640 medium containing 10% (v/v) fetal calf serum (FCS), 50 U/mL penicillin, 50 μg/mL streptomycin, 2 mM L-glutamine, […] 2-mercaptoethanol, 1 ng/mL interleukin-3 were aliquoted into 96-well plates so that the number of cells per well was 1.0×10^5 cells/100 μL. 50 μL of each derivative or CB-7, prepared to final concentrations of 1, 5, 10, 25, 50, and 100 µM, was added to each well. 96-well plates were incubated at 37° C. for 30 minutes in the presence of 5% CO2. Next, 250 μg/mL Roxoribin was added to each well and incubated for 18 hours. At the end of incubation, cells were washed with PBS (FACS buffer) containing 2.5% (v/v) FCS and suspended in 200 μL of FACS buffer containing 25 μg/mL […] for each cell. GFP fluorescence intensities of the cells were analyzed by flow cytometry. Flow cytometry measurement was performed on a FACSCanto™ II (Becton Dickinson) and data were analyzed with FlowJo software (Tree Star). The MFI (%) upon stimulation with roxoribin in the presence of […] derivatives or CB-7 was calculated using the MFI upon stimulation with roxoribin alone as 100%, and then IC50 (chemical compound concentration that inhibits activity by 50%) was calculated by logistic regression analysis.
The evaluation of the TLR7 activation inhibition by B2-24-4-5A·HCOOH was performed by the method described in Example 2. CB-7 and B2-24-4·HCl were used as controls.

[2] = system: Cytochrome P450 (CYP), mouse liver microsomes; assay: Metabolic stability (CYP) using mouse liver microsomes, HPLC; assay type: in vitro ADME; conditions: for Number of peaks detected by HPLC: 0.1 mg/mL, 37° C., 30 minutes or 2 hours; for Drug metabolism mainly by CYPs compared to CB-7: words
Description: For CB-7, B2-24, and B2-5A, 10 mg/mL DMSO solution was used. Each chemical compound was diluted with acetonitrile to 0.1 mg/mL, which was used as the analytical standard. Mouse liver microsomal fractions were rapidly thawed in a warm bath at 37° C. and kept on ice. Reaction buffer containing CYP cofactor was prepared on ice and mixed with the microsomal fractions. The reaction solution was preincubated at 37° C. for 5 minutes, and then the test substance solution was added and mixed well by pipetting. The volume of the reaction solution was 200 μL and the final concentration of the test substance was 0.1 mg/mL. The reaction solution was incubated at 37° C. for 30 minutes or 2 hours, and the reaction was stopped by adding 3 times the volume of acetonitrile and vortexing. After the reaction was stopped, the samples were centrifuged, and each supernatant was separated and dried in an evaporator. 50 μL of 50% acetonitrile solution was added to each solidified sample, and each sample was re-dissolved by vortexing for 5 minutes. Each redissolved solution was centrifuged, and each supernatant was subjected to HPLC analysis using a HITACHI Lachrom ELITE (HITACHI) as a HPLC system and COSMOSIL 5C18-MS-II, 4.6 mmI.D.×150 mm (nacalai tesque Co.) as a column.
Metabolic stability analysis of CB-7 and B2-24-4-5A·HCOOH was performed by the method of Example 5.

[3] = Example 2, Ba/F3 reporter cells, loxoribine stimulation 18 hours, GFP MFI, read-out: IC50 of CB-7 derivatives with modified Areas a and b

SMILES: C=C(C)[C@@H]1CCC(O)(CN(C)C)C[C@H]1c1ccc(OC)cc1 (stereo partly shown) [B2-2A]
- IC50 [1, 3]: > 100 µM

SMILES: C=C(C)[C@@H]1CCC(O)(CNS(C)(=O)=O)C[C@H]1c1ccc(OC)cc1 (stereo partly shown) [B2-3A]
- IC50 [1, 3]: > 10 µM

SMILES: C=C(C)[C@@H]1CC[C@]2(COC(=O)C2)C[C@H]1c1ccc2ccccc2c1 [B2-5A-1]
- IC50 [1, 3]: > 100 µM

SMILES: C=C(C)[C@@H]1CC[C@]2(COC(=O)C2)C[C@H]1c1ccc(COCCOC)cc1 [B2-5A-4]
- IC50 [1, 3]: 2.57 µM
- TLR7 activation inhibitory activity, comparison in words [1]: higher TLR7 activation inhibitory activity than CB-7

SMILES: C=C(C)[C@@H]1CC[C@]2(COC(=O)C2)C[C@H]1c1ccc(CN(CC)CC)cc1 [B2-5A-6]
- IC50 [1, 3]: 0.21 µM
- TLR7 activation inhibitory activity, comparison in words [1]: higher TLR7 activation inhibitory activity than CB-7

SMILES: C=C(C)[C@@H]1CC[C@](CC(=O)O)(C(=O)OC)C[C@H]1c1ccc(OCCCO)cc1 [B2-5A-7-1]
- IC50 [1, 3]: > 10 µM

SMILES: C=C(C)[C@@H]1CC[C@]2(COC(=O)C2)C[C@H]1c1ccc(OCCCO)cc1 [B2-5A-7]
- IC50 [1, 3]: 2.5 µM
- TLR7 activation inhibitory activity, comparison in words [1]: higher TLR7 activation inhibitory activity than CB-7

SMILES: C=C(C)[C@@H]1CC[C@]2(COC(=O)C2)C[C@H]1c1ccc(CN2CCCC2)cc1 [B2-5A-9]
- IC50 [1, 3]: 0.3 µM
- TLR7 activation inhibitory activity, comparison in words [1]: higher TLR7 activation inhibitory activity than CB-7

SMILES: C=C(C)[C@@H]1CC[C@]2(COC(=O)C2)C[C@H]1c1ccc(OC)cc1 [B2-5A]
- IC50 [1, 3]: 2.43 µM
- TLR7 activation inhibitory activity, comparison in words [1]: higher TLR7 activation inhibitory activity than CB-7
- Predicted metabolic modifications (CYP) ([2]; Example 3): +O
- Number of peaks detected by HPLC ([2]; Example 3): 4
- Drug metabolism mainly by CYPs compared to CB-7 [2]: improved drug metabolism mainly by CYPs compared to CB-7

SMILES: C=C(C)[C@@H]1CC[C@@](COC)(CC(=O)O)C[C@H]1c1ccc(OC)cc1 [B2-5B]
- IC50 [1, 3]: > 100 µM

SMILES: C=C(C)[C@@H]1CC[C@@](CO)(CC(=O)N2CCOCC2)C[C@H]1c1ccc(OC)cc1 [B2-6-7]
- IC50 [1, 3]: 9.36 µM

SMILES: C=C(C)[C@@H]1CC[C@@](CO)(CCN(C)C)C[C@H]1c1ccc(OC)cc1 [B2-6A]
- IC50 [1, 3]: > 100 µM

SMILES: C=C(C)[C@@H]1CC[C@@](CO)(CC(=O)N(C)C)C[C@H]1c1ccc(OC)cc1 [B2-6]
- IC50 [1, 3]: > 100 µM

SMILES: C=C[C@]1(CO)CC[C@@H](C(=C)C)[C@H](c2ccc(COCCOC)cc2)C1 [B2-13]
- IC50 [1, 3]: 0.91 µM
- TLR7 activation inhibitory activity, comparison in words [1]: higher TLR7 activation inhibitory activity than CB-7

SMILES: C=C[C@]1(CO)CC[C@@H](C(=C)C)[C@H](c2ccc(-c3ccccc3)cc2)C1 [B2-18]
- IC50 [1, 3]: > 50 µM

SMILES: C=C[C@]1(CO)CC[C@@H](C(=C)C)[C@H](c2ccc3ccccc3c2)C1 [B2-19]
- IC50 [1, 3]: > 100 µM

SMILES: C=C[C@]1(CO)CC[C@@H](C(=C)C)[C@H](c2ccc(Oc3ccccc3)cc2)C1 [B2-21]
- IC50 [1, 3]: > 50 µM

SMILES: C=C[C@]1(CC)CC[C@@H](C(=C)C)[C@H](c2ccc(CN(CC)CC)cc2)C1 [B2-22]
- IC50 [1, 3]: 0.31 µM
- TLR7 activation inhibitory activity, comparison in words [1]: higher TLR7 activation inhibitory activity than CB-7

SMILES: C=C[C@]1(CO)CC[C@@H](C(=C)C)[C@H](c2ccc(-c3ccc(OC)cc3)cc2)C1 [B2-23]
- IC50 [1, 3]: > 100 µM

SMILES: C=C[C@]1(CO)CC[C@@H](C(=C)C)[C@H](c2ccc(CN3CCC(F)(F)CC3)cc2)C1 [B2-24-1]
- IC50 [1, 3]: 1.05 µM
- TLR7 activation inhibitory activity, comparison in words [1]: higher TLR7 activation inhibitory activity than CB-7

SMILES: C=C[C@]1(CO)CC[C@@H](C(=C)C)[C@H](c2ccc(CN3CCOCC3)cc2)C1 [B2-24-2]
- IC50 [1, 3]: 0.71 µM
- TLR7 activation inhibitory activity, comparison in words [1]: higher TLR7 activation inhibitory activity than CB-7

SMILES: C=C[C@]1(CO)CC[C@@H](C(=C)C)[C@H](c2ccc(CN3CC(F)(F)C3)cc2)C1 [B2-24-3]
- IC50 [1, 3]: 1.26 µM
- TLR7 activation inhibitory activity, comparison in words [1]: higher TLR7 activation inhibitory activity than CB-7

SMILES: C=C[C@]1(CO)CC[C@@H](C(=C)C)[C@H](c2ccc(CN3CCNCC3)cc2)C1 [B2-24-4•HCl]
- IC50 [1, 3]: 0.087 µM
- IC50 ([1]; Example 5, Table 5, method of Example 2, read-out: IC50): 0.167 µM

SMILES: C=C[C@]1(CO)CC[C@@H](C(=C)C)[C@H](c2ccc(CN3CCCC3)cc2)C1 [B2-24]
- IC50 [1, 3]: 0.44 µM
- TLR7 activation inhibitory activity, comparison in words [1]: higher TLR7 activation inhibitory activity than CB-7
- Number of peaks detected by HPLC ([2]; Example 3): 4
- Drug metabolism mainly by CYPs compared to CB-7 [2]: improved drug metabolism mainly by CYPs compared to CB-7

SMILES: C=C[C@]1(CO)CC[C@@H](C(=C)C)[C@H](c2ccc(COCCCO)cc2)C1 [B2-26]
- IC50 [1, 3]: 1.26 µM
- TLR7 activation inhibitory activity, comparison in words [1]: higher TLR7 activation inhibitory activity than CB-7

SMILES: C=C[C@]1(C(=O)OC)CC[C@@H](C(=C)C)[C@H](c2ccc(O)cc2)C1 [B2-27]
- IC50 [1, 3]: > 100 µM

SMILES: C=CC[C@]1(CO)CC[C@@H](C(=C)C)[C@H](c2ccc(OCCCO)cc2)C1 [B2-28]
- IC50 [1, 3]: 1.66 µM
- TLR7 activation inhibitory activity, comparison in words [1]: higher TLR7 activation inhibitory activity than CB-7

SMILES: C=CC[C@]1(CO)CC[C@@H](C(=C)C)[C@H](c2ccc(OCC(C)CO)cc2)C1 (stereo partly shown) [B2-29]
- IC50 [1, 3]: 1.74 µM
- TLR7 activation inhibitory activity, comparison in words [1]: higher TLR7 activation inhibitory activity than CB-7

SMILES: C=C(C)[C@@H]1CCC(=O)C[C@H]1c1ccc(OC)cc1 [I-7(Intermediate)]
- IC50 [1, 3]: > 100 µM
